The values that follow come from PubChem BioAssay (NCI).

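Briefly, cells in 96-well plates were exposed to five compound concentrations for 48 h, and endpoints were estimated by linear interpolation. GI50 marks 50% less growth. Definition used: TGI = concentration required for complete inhibition of growth.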

Among the test systems are 786-0 renal; CCRF-CEM leukemia; EKVX NSCLC; HT29 colon; NCI-H460 lung; RXF 393 renal; SF-295 CNS; HOP-92 NSCLC; BT-549 breast; MDA-MB-435.
What all share (test): growth of human tumour cells (NCI), 48 h

As to `COc1ccc2cccc(C(=O)c3ccc(C)c4c3CCC4)c2c1`, the TGI with 786-0 renal was 77.7 µM; with CCRF-CEM leukemia it was more than 100 µM; in the test with EKVX NSCLC it was more than 100 µM; in the test with HT29 colon, more than 100 µM; in the test on NCI-H460 lung it was more than 100 µM; in the test with RXF 393 renal it was 73.5 µM. This molecule returned a TGI with SF-295 CNS of more than 100 µM.
With `N#Cc1cccc(NC(=O)c2ccc(C(=O)O)c(C(=O)c3ccc(C(=O)O)c(C(=O)Nc4cccc(C#N)c4)c3)c2)c1`, the TGI with 786-0 renal, in the test on CCRF-CEM leukemia, with EKVX NSCLC, with HOP-92 NSCLC, with HT29 colon and with NCI-H460 lung was more than 100 µM in each case. Further, the TGI with RXF 393 renal and in the test on SF-295 CNS was more than 100 µM throughout.
`C=C(CN1CCN(c2ccccc2OC)CC1)c1ccc(C(=O)Nc2ccccc2N)cc1`: the GI50 with 786-0 renal is 2.45 µM; in the test on BT-549 breast, 7.12 µM; with EKVX NSCLC it was 10.6 µM; in the test on HOP-92 NSCLC, 5.73 µM; in the test on MDA-MB-435 it was 1.27 µM; in the test with NCI-H460 lung it was 17.5 µM. The GI50 in the test with SF-295 CNS was 4.11 µM. Further, the TGI was 29.1 µM with 786-0 renal; 26.9 µM in the test on BT-549 breast; more than 50 µM in the test on EKVX NSCLC; 44.5 µM with HOP-92 NSCLC; 3.38 µM with MDA-MB-435; more than 50 µM in the test with NCI-H460 lung. In the test on SF-295 CNS, this molecule yielded a TGI of 15.4 µM.
`Cc1cc(C)cc(-n2c3nc(=O)n(C)c(=O)c-3nc3ccccc32)c1`: the TGI was more than 100 µM with 786-0 renal; 61 µM in the test with CCRF-CEM leukemia; 44.7 µM in the test on EKVX NSCLC; 41.3 µM in the test on HT29 colon; 94.4 µM in the test on NCI-H460 lung; more than 100 µM in the test on RXF 393 renal. In the test on SF-295 CNS, the TGI is more than 100 µM.
As to `Cn1cnc([N+](=O)[O-])c1Sc1ccccn1`, the TGI in the test with 786-0 renal, in the test with CCRF-CEM leukemia, in the test with EKVX NSCLC, in the test with HOP-92 NSCLC, with HT29 colon and in the test on NCI-H460 lung was more than 100 µM each time. Moreover, in the test on SF-295 CNS, the TGI was more than 100 µM.
Take `Cc1ccc(S(=O)(=O)N(/N=C(\N)Oc2ccc(Cl)cc2)C(=N)Oc2ccc(Cl)cc2)cc1`: the TGI in the test on 786-0 renal, with CCRF-CEM leukemia, in the test on EKVX NSCLC, with HOP-92 NSCLC, with HT29 colon and in the test with NCI-H460 lung was more than 100 µM each time. In addition, the TGI in the test on RXF 393 renal and with SF-295 CNS was more than 100 µM throughout.
In the case of `O=C(c1cc(O)ccc1O)c1ccccc1C(Cl)(Cl)Cl`, the TGI in the test with 786-0 renal, with CCRF-CEM leukemia, in the test on EKVX NSCLC, in the test with HOP-92 NSCLC, in the test on HT29 colon and in the test with NCI-H460 lung was more than 100 µM each time. Moreover, the TGI with RXF 393 renal and in the test on SF-295 CNS was more than 100 µM in each case.
As to `N/C(=N\NS(=O)(=O)c1ccccc1)Oc1ccc(Cl)cc1`, the TGI with 786-0 renal, in the test with CCRF-CEM leukemia, in the test on EKVX NSCLC, in the test with HOP-92 NSCLC, in the test with HT29 colon and in the test with NCI-H460 lung was more than 100 µM in each case. Moreover, the TGI with RXF 393 renal is 58.1 µM; with SF-295 CNS, more than 100 µM.
`O=C(CC(=O)N1N=C(c2ccccc2)C(N=Nc2ccc(C(=O)O)cc2)C1=O)Nc1ccc(F)cc1` (stereo not drawn): the TGI in the test with 786-0 renal was 63 µM; in the test on EKVX NSCLC it was 77.1 µM; in the test with HOP-92 NSCLC it was more than 100 µM; in the test with HT29 colon it was more than 100 µM; in the test on NCI-H460 lung, more than 100 µM; in the test on RXF 393 renal, 25.3 µM. Also, in the test with SF-295 CNS, the TGI is more than 100 µM.
Consider `CC(=O)NS(=O)(=O)c1ccc(NC(=O)COC(=O)c2cccc3c(=O)c4ccccc4[nH]c23)cc1`, for which the TGI in the test with 786-0 renal, in the test on CCRF-CEM leukemia, in the test with EKVX NSCLC, with HT29 colon, in the test on NCI-H460 lung and in the test on RXF 393 renal was more than 100 µM throughout. The TGI in the test on SF-295 CNS is more than 100 µM.
Consider `Cn1c2c([N+](=O)[O-])[se]nc2c(=O)n1-c1ccc([N+](=O)[O-])cc1`, for which the TGI in the test on 786-0 renal was 6.5 µM; in the test on CCRF-CEM leukemia, more than 100 µM; with EKVX NSCLC, 5.23 µM; with HOP-92 NSCLC, 3.37 µM; with HT29 colon it was 8.12 µM; in the test on NCI-H460 lung, 6.77 µM. Besides, the TGI worked out at 2.21 µM in the test on RXF 393 renal and 11.6 µM in the test on SF-295 CNS.
As for `COC(=O)/C=C/C(=O)C1C(C(=O)OC)C2(C(=O)OC)CCC1(C(=O)OC)N2` (stereo not drawn), the TGI in the test on 786-0 renal, in the test on EKVX NSCLC, in the test with HT29 colon, with RXF 393 renal and in the test with SF-295 CNS was more than 100 µM each time.
Consider `Cc1cnc[nH]c1=O`, for which the TGI in the test with 786-0 renal, with CCRF-CEM leukemia, in the test on EKVX NSCLC, with HT29 colon, in the test with NCI-H460 lung and in the test with SF-295 CNS was more than 100 µM in each case.
Turning to `CCOC1OCCCC1Br` (stereo not drawn), the TGI in the test on 786-0 renal, in the test with CCRF-CEM leukemia, with EKVX NSCLC, with HOP-92 NSCLC, with HT29 colon and in the test on MDA-MB-435 was more than 100 µM throughout. Also, the TGI in the test with NCI-H460 lung, in the test with RXF 393 renal and in the test on SF-295 CNS was more than 100 µM each time.
As for `CC#C[C@@]1(O)CCCC[C@@H]1O`, the TGI in the test on 786-0 renal, in the test with CCRF-CEM leukemia, in the test on EKVX NSCLC, with HOP-92 NSCLC, in the test on HT29 colon and in the test with NCI-H460 lung was more than 100 µM each time. The TGI in the test on RXF 393 renal and in the test on SF-295 CNS was more than 100 µM throughout.
For the molecule `c1ccc2c(CNCCCCCCNCc3cccc4ccccc34)cccc2c1`, the TGI in the test on 786-0 renal is 26.1 µM; in the test with CCRF-CEM leukemia, 9.62 µM; in the test with EKVX NSCLC, 26.4 µM; in the test with HOP-92 NSCLC it was 20.5 µM; in the test on HT29 colon it was 5.04 µM; in the test on NCI-H460 lung, 3.75 µM. In addition, the TGI was determined as 6.9 µM in the test with RXF 393 renal and 24.8 µM in the test on SF-295 CNS.
For `COC(=O)C1=C(OC)c2cc3c(cc2C(c2cc(OC)c(OC)c(OC)c2)C1C(=O)OC)OCO3` (stereo not drawn), the TGI with 786-0 renal, in the test with CCRF-CEM leukemia, with EKVX NSCLC, with HOP-92 NSCLC, with HT29 colon and in the test on NCI-H460 lung was more than 100 µM each time. Also, the TGI with RXF 393 renal and in the test on SF-295 CNS was more than 100 µM in each case.
